Ends that are not written are not given here.
How the values were obtained:
Assay type in all cases: cell-based
[1] = test system: astrocytes derived from rat cerebral cortex (R-CxAs-520); assay: Nestin expression inducing activity, western blot analysis of nestin and GFAP, astrocytes derived from the cerebral cortex; conditions: peptide 5 μM, 2 days; for expression of GFAP compared to the culture without addition of the peptide: anti-GFAP antibody; for expression of nestin compared to the culture without addition of the peptide: anti-nestin antibody, FIG. 4
Protocol: Among the synthetic peptides obtained in Example 1, samples 1 to 3 were evaluated for nestin expression inducing activity by western blot analysis using an anti-nestin antibody. Cells used for the test were cultured cells of astrocytes derived from rat cerebral cortex (R-CxAs-520: available from Lonza). A comparative example was carried out without addition of the peptide. The evaluation test is detailed as follows.
In the same manner as in Example 4, the astrocytes derived from rat cerebral cortex were incubated in the presence of the peptide at a peptide concentration of 5 μM for 2 days. After the incubation was completed, total protein was extracted from cultured cells from each experimental sample in the same manner as in Example 3.
SDS-PAGE and western blot analysis were then carried out in the same manner as in Example 3 to examine expression of nestin and GFAP in each experimental sample. An internal standard used in the series of procedures was the GAPDH protein.
Lanes 1, 2, 3 and 4 are the results without addition of the peptide, with addition of sample 2, with addition of sample 3 and with addition of sample 1, respectively.

[2] = test system: astrocytes derived from rat brain cerebral cortex (R-CxAs-520); assay: Nestin expression inducing activity, nestin gene expression by qRT-PCR, astrocytes derived from the cerebral cortex; conditions: corrected with Actin β, peptide 10 μM, 2 days, FIG. 3
Protocol: Among the synthetic peptides obtained in Example 1, sample 1 (i.e. the nestin-inducing synthetic peptide of the present invention) was evaluated for nestin expression inducing activity by quantifying the expression level of the nestin gene. Cells used for the test were cultured cells of astrocytes derived from rat brain cerebral cortex (R-CxAs-520: available from Lonza). The evaluation test is detailed as follows.
The astrocytes derived from rat cerebral cortex were inoculated into a 6-well cell culture plate at a density of 1.0×10^5 cells/well. The cells were incubated in the AG medium overnight in a CO2 incubator at 37° C. and 5% CO2.
After the overnight incubation, the medium was replaced with an AG medium containing the peptide of sample 1 at the amount of 10 μM, and the incubation was continued under the same condition for 2 more days. A comparative example was carried out without addition of the peptide.
After the incubation was completed, total RNA was extracted from cultured cells from each experimental sample in the same manner as in Example 2. […]
The expression level of the nestin gene in each experimental sample was corrected with the expression level of Actin β in each experimental sample. The expression level of each gene is expressed as a value relative to the expression level of the gene in the sample without addition of the peptide being regarded as 1.

[3] = test system: astrocytes derived from rat brain hippocampus (R-HiAs-521); assay: Nestin expression inducing activity, western blot analysis of nestin and GFAP, astrocytes derived from the hippocampus; conditions: peptide 5 μM, 3 days
Protocol: Among the synthetic peptides obtained in Example 1, sample 1 (i.e. the nestin-inducing synthetic peptide of the present invention) was evaluated for nestin expression inducing activity by western blot analysis using an anti-nestin antibody. Cells used for the test were cultured cells of astrocytes derived from rat brain hippocampus (R-HiAs-521: available from Lonza). A comparative example was carried out without addition of the peptide. The evaluation test is detailed as follows.
In the same manner as in Example 2, the astrocytes derived from rat brain hippocampus were incubated in the presence of the peptide at a peptide concentration of 5 μM for 3 days. After the incubation was completed, cultured cells from each experimental sample were washed with Cold PBS (−), and total protein was extracted using a commercially available protein extraction and purification kit (NucleoSpin™ RNA/Protein kit: available from Macherey Nagel). All procedures were carried out in the absence of proteases according to the instruction attached to the kit. The concentration of the extracted protein was quantified using RC DC Protein assay (available from BIO RAD).
According to the SDS (sodium dodecyl sulphate)-polyacrylamide electrophoresis (SDS-PAGE) and western blot analysis as described below, expression of nestin and GFAP in each experimental sample was examined. An internal standard used in the series of procedures was the GAPDH protein.
Specifically, proteins obtained from each experimental sample and a molecular weight marker (MagicMark™ XP Western Protein Standard: available from Life Technologies) were injected to a well of an SDS-polyacrylamide gel (precast gel for electrophoresis: available from Oriental Instruments Co., Ltd.) and SDS-PAGE was carried out. Electrophoresis of nestin was carried out on a 7.5% SDS-polyacrylamide gel and electrophoresis of GFAP and the GAPDH protein was carried out on a 5-20% SDS-polyacrylamide gel.
The proteins separated by SDS-PAGE were transferred (blotting) onto a PVDF (polyvinylidene difluoride) membrane which was then blocked in Perfect-Block (available from MoBiTec) diluted to 5% in PBS (−) containing Tween 20™ (hereinafter referred to as PBST (−)).
Nestin, GFAP and the GAPDH protein were detected with primary antibodies, an anti-nestin antibody (murine, available from Merck Millipore), an anti-GFAP antibody (murine, available from Progen Biotechnik) and an anti-GAPDH antibody (murine, available from Merck Millipore) diluted 500-, 5000- and 10000-fold, respectively, in PBST (−) by the reaction for 1 hour at room temperature. […]
Target proteins were then detected by reaction with the ECL prime Western blotting detection reagent (available from GE Healthcare) using the Luminescent image analyser LAS-3000 (available from Fujifilm Corporation). […]

[4] = test system: astrocytes derived from rat brain hippocampus (R-HiAs-521); assay: Nestin expression inducing activity, nestin gene expression by qRT-PCR, astrocytes derived from the hippocampus; conditions: corrected with Actin β, peptide 5 μM, 2 days, FIG. 1
Protocol: Among the synthetic peptides obtained in Example 1, sample 1 (i.e. the nestin-inducing synthetic peptide of the present invention) was evaluated for nestin expression inducing activity by quantifying the expression level of the nestin gene. Cells used for the test were cultured cells of astrocytes derived from rat brain hippocampus (R-HiAs-521: available from Lonza). The evaluation test is detailed as follows.
The astrocytes derived from rat brain hippocampus were inoculated into a 6-well cell culture plate at a density of 1.0×10^5 cells/well. […]
After the incubation was completed, cultured cells from each experimental sample were washed with Cold PBS (−), and total RNA was extracted and purified using a commercially available RNA extraction and purification kit (NUCLEOSPIN™ RNA/Protein kit: available from Macherey Nagel). […] The purified RNA was quantified using Agilent 2100 Bioanalyzer (available from Agilent Technologies).
The purified RNA was subjected to qRT-PCR to examine the expression level of the nestin gene. […] RT-PCR employed the two-step RT-PCR method and quantitative PCR employed the TAQMAN® method. […]
The cDNA obtained in RT-PCR was then used as a template for quantitative PCR. […] Quantitative PCR reaction was carried out under the conditions of incubation at 95° C. for 10 seconds followed by 45 cycles of 95° C. for 15 seconds, 62° C. for 20 seconds and 72° C. for 20 seconds. […]

Sequence	expression of GFAP compared to the culture without addition of the peptide [1]	expression of nestin compared to the culture without addition of the peptide [1]	expression of the nestin gene compared to the culture without addition of the peptide [2]	co-expression of GFAP and nestin [1]	expression of nestin, times higher than the culture without addition of the peptide [1]	expression of GFAP compared to the culture without addition of the peptide ([3]; anti-GFAP antibody)	expression of nestin compared to the culture without addition of the peptide ([3]; anti-nestin antibody, FIG. 2)	co-expression of GFAP and nestin [3]	expression of nestin, times higher than the culture without addition of the peptide [3]	expression of the nestin gene compared to the culture without addition of the peptide [4]
NLQDLCRIKIRQCIGKKRTLRKNDRKKR (NLQDLCRIKIRQCIGKKRTLRKNDRKKR-NH2; cysteine pairing not given here) [sample 2, reference compound]	difference in expression of nestin or GFAP was not confirmed	difference in expression of nestin or GFAP was not confirmed	–	–	–	–	–	–	–	–
SLQYLCRFVIRQYTRKKRTLRKNDRKKR (SLQYLCRFVIRQYTRKKRTLRKNDRKKR-NH2) [sample 1]	difference in expression of GFAP was not confirmed	significant increase	significant increase	co-expressed	≥ 2 times	difference in expression of GFAP was not confirmed	significant increase	co-expressed	≥ 2 times	significant increase
TLHQQCIRVLKNNIDKKRTLRKNDRKKR (TLHQQCIRVLKNNIDKKRTLRKNDRKKR-NH2) [sample 3, reference compound]	difference in expression of nestin or GFAP was not confirmed	difference in expression of nestin or GFAP was not confirmed	–	–	–	–	–	–	–	–
